Test [1] concerns the target T1, Aldo-keto reductase family 1 member B1 (Homo sapiens, UniProt P15121). Briefly: ChEBML_157077. From the text: Inhibition of human placental aldose reductase (HPAR) activity with glyceraldehyde as substrate
In test [2] the target is T1, Aldo-keto reductase family 1 member B1. Description: Compound was evaluated for inhibition of human placental aldose reductase (HPAR) activity with glyceraldehyde as substrate.

Each structure is given as a SMILES string.

In test [1], `O=c1[nH]c(O)c(-c2cc(Cl)ccc2S(=O)(=O)Nc2ccc(F)cc2)[nH]1` gave an IC50 of 230 nM.

In turn, `CCCNS(=O)(=O)c1ccc(Cl)cc1-c1[nH]c(=O)[nH]c1O` returned a half-maximal inhibitory concentration (IC50) in test [1] of 580 nM.

With `CS(=O)(=O)c1ccc(F)cc1-c1[nH]c(=O)[nH]c1O`, in test [1], it took 610 nM to reach half-maximal inhibition (IC50).

`CCCS(=O)(=O)c1ccc(Cl)cc1-c1[nH]c(=O)[nH]c1O` gave an IC50 in test [1] of 250 nM.

For `Cc1cc(Cl)cc(-c2[nH]c(=O)[nH]c2O)c1S(C)(=O)=O`, half-maximal inhibition in test [1] (IC50) required 270 nM.

Consider `O=c1[nH]c(O)c(-c2cc(Cl)ccc2S(=O)(=O)Cc2ccc(Cl)cc2)[nH]1`, for which half-maximal inhibition in test [1] (IC50) was put at 270 nM.

In test [2], `C[S+]([O-])c1ccc(Cl)cc1-c1[nH]c(=O)[nH]c1O` (configuration not stated) yielded a 50% inhibitory concentration (IC50) of 250 nM.

`CS(=O)(=O)c1c(-c2[nH]c(=O)[nH]c2O)cc(Cl)cc1C(F)(F)F` showed an IC50 in test [1] of 580 nM.

The compound `CCCCCS(=O)(=O)c1ccc(Cl)cc1-c1[nH]c(=O)[nH]c1O` showed a concentration for half-maximal inhibition (IC50) in test [1] of 50 nM.

Take `CS(=O)(=O)c1ccc(Cl)cc1-c1[nH]c(=O)[nH]c1O`: the IC50 in test [2] worked out at 50 nM.

As for `CCCCCCS(=O)(=O)c1ccc(Cl)cc1-c1[nH]c(=O)[nH]c1O`, the midpoint of inhibition in test [1], the IC50, lay at 230 nM. That is a sub-micromolar value.

In test [1], `CS(=O)(=O)c1c(Cl)cc(Cl)cc1-c1[nH]c(=O)[nH]c1O` returned an IC50 of 610 nM.

In general, IC50 refers to the concentration that inhibits the measured activity by half. High values mean weaker potency, low ones greater potency.

The values above are taken from BindingDB's records for doi:10.1021/jm00126a011 (Pfizer, 1989).
